Assays:
mAb 806 = assay: Binding of yeast surface displayed EGFR 273-621 point mutants to mAb […] (flow cytometry); design: species or system mouse; key: ++ indicates wild type binding; +, intermediate binding; −, binding equal to negative control; conditions: 75 nM 806
Method: Out of 100 clones sequenced, roughly 20% contained multiple mutations and were omitted from subsequent analysis. […] All mutations are localized to the disulfide-bonded loop between cysteines 287 and 302, as has been previously determined (34). […] To verify the results from the fine epitope mapping library, alanine scanning through site-directed mutagenesis (SDM) was performed on the entire loop 287-302 (TABLE 7, right column). All sites with loss of binding by alanine scanning (287, 293, 298, and 302) correspond to mutants isolated from the library. […] Since an average of 6-7 amino acid substitutions are accessible by single nucleotide mutagenesis, a larger range of physicochemical diversity can be sampled compared to alanine scanning. […] The C287R substitution raises this dissociation constant to 127 nM (68% confidence interval of 103-160 nM), which gives a ΔΔG value of +2.4 kcal/mol when compared to wild-type and, in alanine scanning terms, is an intermediate loss of binding (36).
The epitope mapping library was constructed using the Stratagene GeneMorph® random mutagenesis kit to give a low mutagenesis rate. The template used for library construction was a pCT302 backbone containing EGFR fragment 273-621, with a C283A mutation to prevent disulfide mispairing, inserted for yeast display (27). The PCR products were gel purified and extracted using a Qiagen Qiaquick gel extraction kit. The library was transformed into Saccharomyces cerevisiae strain EBY100 (28) by electroporation (40) and homologous recombination (41) using a Bio-Rad (Richmond, Calif.) Gene Pulser Transfection Apparatus. […] Growth and expression of the library using yeast surface display was performed as previously described (28).
Anti-c-myc chicken IgY fraction was purchased from Molecular Probes (Eugene, Oreg.). An appropriate number of yeast cells (at least 10× library size) were washed with FACS buffer (phosphate buffered saline containing 1 mg/ml bovine serum albumin). The cells were incubated with 4 μg/ml anti-c-myc chicken IgY and the appropriate concentration of mAb for 30 min at 25° C. The cells were then washed with FACS buffer and incubated with 1:25 dilution phycoerythrin-labeled goat anti-mouse IgG (Sigma) and 1:100 dilution Alexa Fluor® 488 goat anti-chicken IgG (Molecular Probes) for 30 min at 4° C. The labeled cells were rinsed, and cell libraries were sorted using a MoFlo FACS machine at the MIT flow cytometry core facility.
Plasmids from the sorted library populations were recovered using Zymoprep™ and sequenced at the MIT Biopolymers Laboratory. Site-directed mutants were made using QuickChange® site-directed mutagenesis (Stratagene). Single clones were transformed into yeast using EZ Yeast Transformation (Zymo Research) and grown in minimal media (yeast nitrogen base, casein hydrolysate, dextrose, and phosphate buffer pH 7.4) overnight. Yeast surface protein expression was induced by transferring to minimal media with galactose and incubating overnight. For each clone, 1×10^6 cells were labeled as before with anti-c-myc chicken IgY, the appropriate mAb, and secondary fluorescent antibodies. Fluorescence data was obtained using a Coulter Epics XL flow cytometer (Beckman-Coulter) and was analyzed using DakoCytomation Summit™ software

[1] = test system: mAb 806 binding to immobilized 287-302 EGFR peptide; assay: BIAcore, soluble EGFR peptides blocking mAb […] binding; design: species or system human; conditions: mAb […] 500 nM; soluble peptide 5 and 10 μM; amine coupling
[2] = test system: mAb 806 binding to immobilized 1-501 EGFR fragment; assay: ELISA, peptide inhibition of mAb […] binding to 1-501 EGFR; design: species or system human; conditions: peptide in solution, increasing concentrations
[3] = test system: mAb 806 binding to immobilized 501-Fc; assay: ELISA, peptide inhibition of mAb […] binding to 501-Fc; design: species or system human; conditions: increasing concentrations of peptide
[4] = EGFR Mutant (Library), 273-621 on yeast
[5] = EGFR Mutant (SDM) in loop 287-302, 273-621 on yeast

Substance	mAb […] Binding (mAb 806; [4])	mAb […] Binding (mAb 806; [5])	other results
K301A: yeast displayed EGFR 273-621 site-directed mutant		++	
CGADSYEMEEDGVRK (epitope peptide) [287-301 EGFR peptide]			inhibition of mAb […] binding to immobilized 287-302 EGFR peptide (BIAcore) [1]: weakly inhibit
G298D: yeast displayed EGFR 273-621 point mutant from library	−		
C302S: yeast displayed EGFR 273-621 point mutant from library	−		
G288A: yeast displayed EGFR 273-621 site-directed mutant		++	
V299A: yeast displayed EGFR 273-621 site-directed mutant		++	
R300C: yeast displayed EGFR 273-621 point mutant from library	+		
CGADSYEMEEDG (epitope peptide) [287-298 EGFR peptide]			inhibition of mAb […] binding to immobilized 287-302 EGFR peptide (BIAcore) [1]: unable to prevent binding; inhibition of mAb […] binding to immobilized 1-501 fragment (ELISA) [2]: did not inhibit
wild-type 273-621: yeast surface displayed wild-type EGFR fragment 273-621			mAb […] binding score (mAb 806; wild-type EGFR 273-621 on yeast): ++
R300A: yeast displayed EGFR 273-621 site-directed mutant		++	
Y292A: yeast displayed EGFR 273-621 site-directed mutant		++	
C302Y: yeast displayed EGFR 273-621 point mutant from library	+		
A289K: yeast displayed EGFR 273-621 site-directed mutant		++	
E296A: yeast displayed EGFR 273-621 site-directed mutant		++	
CGADSYEM (epitope peptide) [N-terminal fragment from cyanogen bromide cleavage of the 287-302 peptide]			inhibition of mAb […] binding to 501-Fc (ELISA) [3]: incapable of inhibiting
E293K: yeast displayed EGFR 273-621 point mutant from library	−		
E293D: yeast displayed EGFR 273-621 point mutant from library	+		
K301E: yeast displayed EGFR 273-621 point mutant from library	+		
G298A: yeast displayed EGFR 273-621 site-directed mutant		+	
EEGVRKC (epitope peptide) [C-terminal (EEGVRKC), C-terminal fragment from cyanogen bromide cleavage of the 287-302 peptide]			inhibition of mAb […] binding to 501-Fc (ELISA) [3]: incapable of inhibiting
V299K: yeast displayed EGFR 273-621 site-directed mutant		++	
C302F: yeast displayed EGFR 273-621 point mutant from library	+		
E295A: yeast displayed EGFR 273-621 site-directed mutant		++	

Further lines, with some results ahead:

mAb […] Binding (mAb 806; [4])	mAb […] Binding (mAb 806; [5])	Substance	other results
−		R300P: yeast displayed EGFR 273-621 point mutant from library	
+		C287R: yeast displayed EGFR 273-621 point mutant from library	
	++	D290A: yeast displayed EGFR 273-621 site-directed mutant	
	−	C302A: yeast displayed EGFR 273-621 site-directed mutant	
+		C302R: yeast displayed EGFR 273-621 point mutant from library	
−		G298S: yeast displayed EGFR 273-621 point mutant from library	
+		D297Y: yeast displayed EGFR 273-621 point mutant from library	
	−	V299D: yeast displayed EGFR 273-621 site-directed mutant	
+		E293G: yeast displayed EGFR 273-621 point mutant from library	
+		C287G: yeast displayed EGFR 273-621 point mutant from library	
+		C287S: yeast displayed EGFR 273-621 point mutant from library	
−		C302G: yeast displayed EGFR 273-621 point mutant from library	
+		C287Y: yeast displayed EGFR 273-621 point mutant from library	
+		C287W: yeast displayed EGFR 273-621 point mutant from library	
	++	D297A: yeast displayed EGFR 273-621 site-directed mutant	
	+	C287A: yeast displayed EGFR 273-621 site-directed mutant	
	+	E293A: yeast displayed EGFR 273-621 site-directed mutant	
	++	M294A: yeast displayed EGFR 273-621 site-directed mutant	
	++	S291A: yeast displayed EGFR 273-621 site-directed mutant	
